Patent publication US12448388B2, “PRMT5 inhibitors and uses thereof” (Gilead Sciences, Inc., priority 2023, dated 2025)

Experiments:
[1] = system: LU99 (lung, giant cell carcinoma; MTAP-Deleted); assay: In vitro cell viability assay (CellTiter-Glo, 9 days), LU99; format: cell-based; conditions: Homo sapiens, Lu-99, 216 h, 9-day treatment
Experimental: Some Compounds of the Disclosure were tested in Calu-6 (Vendor: ATCC; Cat #HTB-56; Description: lung, adenocarcinoma), LU99 (Vendor: JCRB; Cat #JCRB0080; Description: lung, giant cell carcinoma), SW780 (Vendor: ATCC; Cat #CRL-2169; Description: bladder, urothelial carcinoma), and BxPC-3 (Vendor: ATCC; Cat #CRL-1687; Description: pancreas, adenocarcinoma) cellular viability assays according to the general protocol. Seeded cells into 96-well plate and incubated overnight. Seeded an additional 10 wells per cell line in an additional 96-well plate for assessing Time Zero luminescence and incubated overnight. To treatment plates, added compounds into each well using Tecan D300e dispenser (nine three-fold dilutions starting at […]) and incubated for 9 days. Time Zero (no compound treatment, luminescence assessed on day 1) and 9-day treatment (luminescence assessed on day 10) plates were assessed using the same CellTiter-Glo® substrate protocol. Thawed CellTiter-Glo® Buffer and lyophilized CellTiter-Glo® substrate and equilibrated to room temperature prior to use. Transferred 100 ml CellTiter-Glo® Buffer into amber bottle containing CellTiter-Glo® substrate to reconstitute the lyophilized enzyme/substrate mixture. For Time Zero and 9-day treatment plates, removed all plating media. Added 100 μl fresh media/well. Added 100 μl CellTiter-Glo® Reagent per well. Mixed contents for 10 min on an orbital shaker to lyse cells. Recorded luminescence with Perkin Elmer Envision 2105 machine. Analyzed the data with GraphPad software.

[2] = PK data (IV/PO) in Beagle dog; conditions: in vivo; for clearance: read-out: Observed CL (converted); for bioavailability: PO 0.5 mg/Kg; for Vd: read-out: Vss
[3] = PK data (IV/PO) in cynomolgus monkey; conditions: in vivo; for clearance: read-out: Observed CL (converted); for Vd: read-out: Vss; for bioavailability: PO 0.5 mg/Kg
[4] = system: Symmetric Di-methyl Arginine (SDMA) signal (PRMT5 inhibition) in HCT116 MTAP-deleted cells; assay: Symmetric di-methyl arginine image-based high content screen assay (SDMA assay), HCT116 MTAP-deleted; format: cell-based; conditions: for EC50: Homo sapiens, HCT-116, HCT116 MTAP-deleted, class symbols
Outline: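 HCT116 WT and MTAP-deleted cells (800/well, RPMI 1640 + 10% FBS) treated with compound 3 days at 37 °C; formalin-fixed, stained with anti-SDMA antibody/Alexa 488 plus DAPI. Mean SDMA intensity per DAPI-defined cell imaged; EC50 from 4-parameter logistic fit.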

[5] = HCT116 WT versus HCT116 MTAP-deleted
[6] = HCT116 WT vs HCT116 MTAP-deleted

C[C@H]1CN(C(=O)c2cc3c(cc2F)nc(N)c2cncn23)[C@H]2c3ccc(C(F)(F)F)cc3C[C@H]2O1 (single isomer, unassigned) [Ff-81]
GI50 [1]: 19 nM
half-life ([2]; IV 0.5 mg/Kg): 7.9 h
clearance ([2]; IV 0.5 mg/Kg): 4.33 mL/min/kg
bioavailability [2]: 134%
half-life ([3]; IV 0.5 mg/Kg): 16 h
clearance ([3]; IV 0.5 mg/Kg): 3 mL/min/kg
Vd ([3]; IV 0.5 mg/Kg): 1.77 L/kg
bioavailability [3]: 123%

C[C@@H]1CN(C(=O)c2cc3c(cc2F)nc(N)c2cncn23)[C@H]2c3ccc(OC(F)(F)F)cc3C[C@H]2O1 (single isomer, unassigned) [Ff-183]
EC50 selectivity [4, 5]: 117
EC50 [4]: ≤ 1 nM
GI50 [1]: 11 nM

Nc1nc2cnc(C(=O)N3CCC[C@@H]4Oc5cc(C(F)(F)F)cc(F)c5[C@@H]43)cc2n2cncc12 (single isomer, unassigned) [Fg-53]
EC50 selectivity [4, 6]: 85
EC50 [4]: ≤ 1 nM
GI50 [1]: 6 nM
half-life ([2]; IV 0.25 mg/Kg): 3.8 h
clearance ([2]; IV 0.25 mg/Kg): 6.33 mL/min/kg
Vd ([2]; IV 0.25 mg/Kg): 1.97 L/kg
bioavailability [2]: 73%
half-life ([3]; IV 0.25 mg/Kg): 15.4 h
clearance ([3]; IV 0.25 mg/Kg): 2 mL/min/kg
Vd ([3]; IV 0.25 mg/Kg): 2.53 L/kg
bioavailability [3]: 84%

Nc1nc2cnc(C(=O)N3CCC[C@@H]4Oc5cc(OC(F)(F)F)cc(F)c5[C@@H]43)cc2n2cncc12 (single isomer, unassigned) [Fg-55]
EC50 selectivity [4, 6]: 114
EC50 [4]: ≤ 1 nM
GI50 [1]: 10 nM
half-life ([2]; IV 0.25 mg/Kg): 6 h
clearance ([2]; IV 0.25 mg/Kg): 4.33 mL/min/kg
Vd ([2]; IV 0.25 mg/Kg): 1.8 L/kg
half-life ([3]; IV 0.25 mg/Kg): 10.7 h
clearance ([3]; IV 0.25 mg/Kg): 2.17 mL/min/kg
Vd ([3]; IV 0.25 mg/Kg): 2 L/kg

Nc1nc2cc(F)c(C(=O)N3CCC[C@@H]4Oc5cc(C(F)(F)F)ccc5[C@@H]43)cc2n2cncc12 [Ff-104, (4-amino-7-fluoroimidazo[1,5-a]quinoxalin-8-yl)((4aS,9bS)-7-(trifluoromethyl)-3,4,4a,9b-tetrahydrobenzofuro[3,2-b]pyridin-1(2H)-yl)methanone]
GI50 [1]: 4 nM
half-life ([2]; IV 0.25 mg/Kg): 3.9 h
clearance ([2]; IV 0.25 mg/Kg): 6.5 mL/min/kg
Vd ([2]; IV 0.25 mg/Kg): 1.78 L/kg
half-life ([2]; IV 0.5 mg/Kg): 8.7 h
clearance ([2]; IV 0.5 mg/Kg): 3.17 mL/min/kg
Vd ([2]; IV 0.5 mg/Kg): 2 L/kg
bioavailability [2]: 68%
half-life ([3]; IV 0.25 mg/Kg): 10.4 h
clearance ([3]; IV 0.25 mg/Kg): 1.67 mL/min/kg
Vd ([3]; IV 0.25 mg/Kg): 1.47 L/kg
half-life ([3]; IV 0.5 mg/Kg): 11 h
clearance ([3]; IV 0.5 mg/Kg): 3.17 mL/min/kg
Vd ([3]; IV 0.5 mg/Kg): 1.7 L/kg
bioavailability [3]: 108%

Nc1nc2cnc(C(=O)N3CCC[C@@H]4Oc5cc(C(F)(F)F)ccc5[C@@H]43)cc2n2cncc12 [Ff-110, (4-aminoimidazo[1,5-a]pyrido[3,4-e]pyrazin-8-yl)((4aS,9bS)-7-(trifluoromethyl)-3,4,4a,9b-tetrahydrobenzofuro[3,2-b]pyridin-1(2H)-yl)methanone]
EC50 selectivity [4, 5]: 118
EC50 [4]: ≤ 1 nM
GI50 [1]: 7 nM

Nc1nc2ccc(C(=O)N3CCC[C@@H]4Oc5cc(C(F)(F)F)ccc5[C@@H]43)cc2n2cncc12 [Ff-111, (4-aminoimidazo[1,5-a]quinoxalin-8-yl)((4aS,9bS)-7-(trifluoromethyl)-3,4,4a,9b-tetrahydrobenzofuro[3,2-b]pyridin-1(2H)-yl)methanone]
EC50 selectivity [4, 5]: 258
EC50 [4]: ≤ 1 nM
GI50 [1]: 8 nM
half-life ([3]; IV 0.33 mg/Kg): 5.9 h
clearance ([3]; IV 0.33 mg/Kg): 2.5 mL/min/kg
Vd ([3]; IV 0.33 mg/Kg): 1.29 L/kg

Cc1ncc2c(N)nc3cnc(C(=O)N4CCC[C@@H]5Oc6cc(OC(F)(F)F)ccc6[C@@H]54)cc3n12 [Ff-340, (4-amino-1-methylimidazo[1,5-a]pyrido[3,4-e]pyrazin-8-yl)((4aS,9bS)-7-(trifluoromethoxy)-3,4,4a,9b-tetrahydrobenzofuro[3,2-b]pyridin-1(2H)-yl)methanone]
EC50 selectivity [4, 5]: 135
EC50 [4]: ≤ 1 nM
GI50 [1]: 17 nM
half-life ([3]; IV 0.33 mg/Kg): 5.8 h
clearance ([3]; IV 0.33 mg/Kg): 4 mL/min/kg
Vd ([3]; IV 0.33 mg/Kg): 1.9 L/kg

Nc1nc2cnc(C(=O)N3CCC[C@@H]4Oc5cc(OC(F)(F)F)ccc5[C@@H]43)cc2n2cncc12 [Ff-341, (4-aminoimidazo[1,5-a]pyrido[3,4-e]pyrazin-8-yl)((4aS,9bS)-7-(trifluoromethoxy)-3,4,4a,9b-tetrahydrobenzofuro[3,2-b]pyridin-1(2H)-yl)methanone]
EC50 selectivity [4, 5]: 145
EC50 [4]: ≤ 1 nM
GI50 [1]: 13 nM
half-life ([3]; IV 0.25 mg/Kg): 8 h
clearance ([3]; IV 0.25 mg/Kg): 3.33 mL/min/kg
Vd ([3]; IV 0.25 mg/Kg): 2.15 L/kg

Cc1ncn2c1c(N)nc1cnc(C(=O)N3CCC[C@@H]4Oc5cc(C(F)(F)F)ccc5[C@@H]43)cc12 [Ff-499, (4-amino-3-methylimidazo[1,5-a]pyrido[3,4-e]pyrazin-8-yl)((4aS,9bS)-7-(trifluoromethyl)-3,4,4a,9b-tetrahydrobenzofuro[3,2-b]pyridin-1(2H)-yl)methanone]
half-life ([3]; IV 0.33 mg/Kg): 1.39 h
clearance ([3]; IV 0.33 mg/Kg): 24.5 mL/min/kg
Vd ([3]; IV 0.33 mg/Kg): 1.93 L/kg

Nc1nc2cnc(C(=O)N3CC4(CC4)C[C@@H]4Oc5cc(C(F)(F)F)ccc5[C@@H]43)cc2n2cncc12 [Ff-648, (4-aminoimidazo[1,5-a]pyrido[3,4-e]pyrazin-8-yl)((4aS,9bS)-7-(trifluoromethyl)-4a,9b-dihydro-2H-spiro[benzofuro[3,2-b]pyridine-3,1′-cyclopropan]-1(4H)-yl)methanone]
EC50 selectivity [4, 6]: 50
EC50 [4]: ≤ 1 nM
GI50 [1]: 9 nM

Nc1nc2cnc(C(=O)N3CC[C@H]4C[C@@H]3c3ccc(C(F)(F)F)c(F)c3O4)cc2n2cncc12 [Ff-684, (4-aminoimidazo[1,5-a]pyrido[3,4-e]pyrazin-8-yl)((2S,6R)-10-fluoro-9-(trifluoromethyl)-3,4-dihydro-2H-2,6-methanobenzo[b][1,5]oxazocin-5(6H)-yl)methanone]
EC50 selectivity [4, 6]: 121
EC50 [4]: ≤ 1 nM

Nc1nc2cnc(C(=O)N3CC[C@H]4C[C@@H]3c3ccc(OC(F)(F)F)cc3O4)cc2n2cncc12 [Ff-685, (4-aminoimidazo[1,5-a]pyrido[3,4-e]pyrazin-8-yl)((2S,6R)-9-(trifluoromethoxy)-3,4-dihydro-2H-2,6-methanobenzo[b][1,5]oxazocin-5(6H)-yl)methanone]
EC50 selectivity [4, 6]: 108
EC50 [4]: 1 to 5 nM

[2H]C1([2H])CC[C@@H]2Oc3cc(C(F)(F)F)ccc3[C@@H]2N1C(=O)c1cc2c(cn1)nc(N)c1cncn12 [Fg-60, (4-aminoimidazo[1,5-a]pyrido[3,4-e]pyrazin-8-yl)((4aS,9bS)-7-(trifluoromethyl)-3,4,4a,9b-tetrahydrobenzofuro[3,2-b]pyridin-1(2H)-yl-2,2-d2)methanone]
EC50 selectivity [4, 6]: 87
EC50 [4]: ≤ 1 nM
